Test results reported in patent US20110028686A1, “Protein binding miniature proteins” (Yale University, priority 2000, published 2011).
Peptide text beside a SMILES is read from it.

Assays:
bZIP region of Fos = biological target: T1, bZIP region of Fos (Homo sapiens, UniProt P01100); experiment: Fluorescence polarization specificity, Fos; assay type: binding
T1 construct: the bZIP region of Fos, which forms dimeric complexes with other bZIP proteins
Procedure: (§1) FIG. 3—Fluorescence polarization analysis of the affinity of GST-MDM2 for selected peptides and the affinity of pP53-05 for selected proteins. […] Each point represents the average of at least three trials. Error bars represent the standard error. Kd values were calculated as described in Heyduk, et al., Proc Natl Acad Sci USA 1990, 87, 1744. […] Plot illustrates the fraction of p53AD-Flu (10 nM) bound to GST-MDM2 (400 nM) at equilibrium as a function of added pP53-05 (4.5 μM-0.18 μM). Ki was calculated using the Cheng-Prusoff equation.
(§2) The specificity of pP53-05 was evaluated by measuring its affinity for several receptors and enzymes that bind helical or hydrophobic peptides or small molecules (FIG. 3).

GST-MDM2 [1] = experiment: Fluorescence polarization, affinity for GST-MDM2; assay type: binding, human; details: calmodulin, Fos, carbonic anhydrase, protein kinase A vs GST-MDM2
GST-MDM2 [2] = biological target: T2, GST-MDM2 (Homo sapiens, UniProt Q00987); experiment: Fluorescence polarization, affinity for GST-MDM2; assay type: binding; details: fluorescein-labeled peptide; read-out: equilibrium dissociation constant (Kd) of the peptide·GST-MDM2 complex
T2 sequence (Q00987 whole entry): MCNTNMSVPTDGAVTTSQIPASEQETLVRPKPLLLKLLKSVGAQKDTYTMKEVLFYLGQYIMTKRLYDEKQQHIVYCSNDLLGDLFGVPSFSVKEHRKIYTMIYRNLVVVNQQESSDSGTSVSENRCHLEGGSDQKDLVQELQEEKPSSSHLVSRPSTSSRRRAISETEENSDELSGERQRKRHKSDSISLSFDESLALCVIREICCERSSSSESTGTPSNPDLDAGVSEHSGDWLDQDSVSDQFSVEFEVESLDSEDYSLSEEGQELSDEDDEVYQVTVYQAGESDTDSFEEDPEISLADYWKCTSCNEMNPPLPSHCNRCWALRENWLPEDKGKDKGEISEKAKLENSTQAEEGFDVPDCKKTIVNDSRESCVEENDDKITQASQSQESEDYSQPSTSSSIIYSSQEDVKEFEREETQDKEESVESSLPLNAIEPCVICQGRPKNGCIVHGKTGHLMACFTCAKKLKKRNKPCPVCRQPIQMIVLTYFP

protein kinase A = protein kinase A (Homo sapiens, UniProt P17612); experiment: Fluorescence polarization specificity, protein kinase A; assay type: binding
Procedure: as §1, §2

Calmodulin [3] = biological target: T3, Calmodulin (Homo sapiens, UniProt P0DP23); experiment: Fluorescence polarization specificity, calmodulin; assay type: binding
T3 construct: purchased Sigma
Procedure: as §1, §2

GST-MDM2 [4] = biological target: T2, GST-MDM2; experiment: Competition fluorescence polarization, p53AD-Flu bound to GST-MDM2; assay type: binding; details: p53AD-Flu 10 nM, GST-MDM2 400 nM; Cheng-Prusoff
[5] = Circular dichroism thermal denaturation; assay type: physicochemical; details: far UV circular dichroism at 222 nm
Procedure: Spectra were acquired in 0.5×PBS at 25° C. using a Aviv Model 62DS spectrometer. […] Each data set represents the average of 10 scans. Spectra were background corrected but were not smoothed. (b) Temperature dependence of the CD spectrum of pP53-05. ΘMRE is in units of deg·cm^2·dmol^−1.
Circular dichroism spectra were recorded in PBS on an Aviv 202 CD Spectrometer and were background corrected but not smoothed. Wavelength scans were performed at 4° C. between 200 and 260 nm at 1 nm intervals with a recording time of five seconds at each interval. Bak (72-94), 4099, 4100, 4101, 4102 were used at concentrations of 0.028 mM, 0.0069 mM, 0.0119 mM, 0.014 mM and 0.016 mM respectively. Thermal denaturation curves were measured at 222 nm between 4-98° C. with 2° C. steps and one minute equilibration at each temperature. Peptides were used at the highest concentrations used for the wavelength scans described above. Mean residue elliptcity and percent helicity were calculated from the value at 222 nm after background correction.

carbonic anhydrase = experiment: Fluorescence polarization specificity, carbonic anhydrase; assay type: binding
Procedure: as §1, §2

Calmodulin [6] = biological target: T3, Calmodulin; experiment: Calmodulin binding by fluorescence emission
Carbonic anhydrase II = biological target: T4, Carbonic anhydrase II (Homo sapiens, UniProt P00918); experiment: Carbonic anhydrase II binding by fluorescence emission; details: PBS
T4 construct: purchased Sigma

Bcl-2 = Bcl-2 (Homo sapiens, UniProt P10415); experiment: Bcl-2 binding by fluorescence emission of fluorescein-labeled peptide; details: read-out: Kd for binding to Bcl-2, 4° C., PBS
Chain of Bcl-2 (P10415 1-205): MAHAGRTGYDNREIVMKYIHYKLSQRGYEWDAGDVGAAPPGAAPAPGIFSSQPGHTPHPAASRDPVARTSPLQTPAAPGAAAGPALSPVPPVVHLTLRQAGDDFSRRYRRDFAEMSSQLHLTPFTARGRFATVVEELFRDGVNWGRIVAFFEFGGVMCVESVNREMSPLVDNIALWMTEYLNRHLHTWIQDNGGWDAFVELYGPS

T1 sequence (P01100 137-200 limits assumed): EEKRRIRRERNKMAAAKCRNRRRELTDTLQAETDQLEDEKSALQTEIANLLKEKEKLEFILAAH

| Kd (Calmodulin [6]) [µM] | Kd (Carbonic anhydrase II) [µM] | Kd (Bcl-2) [µM] | Structure (SMILES) | Kd (bZIP region of Fos) [µM] | ΔΔG between stabilities of non-target protein complexes and pP53-05·GST-MDM2 (GST-MDM2 [1]) | Kd (GST-MDM2 [2]) [µM] | Kd (protein kinase A) [µM] | Kd (Calmodulin [3]) [µM] | Ki (GST-MDM2 [4]) [µM] | Tm, cooperative thermal melt [5] | Kd (carbonic anhydrase) [µM] |
| --- | --- | --- | --- | --- | --- | --- | --- | --- | --- | --- | --- |
|  |  |  | CC[C@H](C)[C@H](NC(=O)[C@H](CC(C)C)NC(=O)[C@H](CC(=O)O)NC(=O)[C@H](CCC(=O)O)NC(=O)[C@@H](NC(=O)[C@@H]1CCCN1C(=O)[C@H](C)NC(=O)[C@H](CC(=O)O)NC(=O)[C@H](CC(=O)O)NC(=O)CNC(=O)[C@@H]1CCCN1C(=O)[C@H](Cc1ccc(O)cc1)NC(=O)[C@@H](NC(=O)[C@@H]1CCCN1C(=O)[C@H](CCC(N)=O)NC(=O)[C@H](CO)NC(=O)[C@@H]1CCCN1C(=O)CN)[C@@H](C)O)C(C)C)C(=O)N[C@@H](CCCNC(=N)N)C(=O)N[C@@H](Cc1ccccc1)C(=O)N[C@@H](CCCCN)C(=O)N[C@@H](Cc1ccccc1)C(=O)N[C@@H](CC(C)C)C(=O)N[C@@H](CC(C)C)C(=O)N[C@@H](CCC(N)=O)C(=O)N[C@@H](Cc1c[nH]c2ccccc12)C(=O)N[C@@H](Cc1ccc(O)cc1)C(=O)N[C@@H](CC(C)C)C(=O)N[C@@H](CC(C)C)C(=O)N[C@@H](C)C(=O)N[C@@H](CC(C)C)C(N)=O [pP53-05] (H-GPSQPTYPGDDAPVEDLIRFKFLLQWYLLAL-NH2; N-terminus and C-terminus assumed) | 42 | 2.8-4.4 kcal·mol^−1 | 0.099 ± 0.011 | 16 | > 275 | 0.722 | 47 °C | 298 |
| 25 ± 4 | 8.6 | 0.352 ± 0.033 | CC[C@H](C)[C@H](NC(=O)[C@H](CC(C)C)NC(=O)[C@H](CC(=O)O)NC(=O)[C@H](CCC(=O)O)NC(=O)[C@@H](NC(=O)[C@@H]1CCCN1C(=O)[C@H](C)NC(=O)[C@H](CC(=O)O)NC(=O)[C@H](CC(=O)O)NC(=O)CNC(=O)[C@@H]1CCCN1C(=O)[C@H](Cc1ccc(O)cc1)NC(=O)[C@@H](NC(=O)[C@@H]1CCCN1C(=O)[C@H](CCC(N)=O)NC(=O)[C@H](CO)NC(=O)[C@@H]1CCCN1C(=O)CN)[C@@H](C)O)C(C)C)C(=O)N[C@@H](CCCNC(=N)N)C(=O)N[C@@H](Cc1ccccc1)C(=O)N[C@H](C(=O)NCC(=O)N[C@@H](CCCNC(=N)N)C(=O)N[C@@H](CC(C)C)C(=O)N[C@@H](CC(C)C)C(=O)N[C@@H](C)C(=O)N[C@@H](Cc1ccc(O)cc1)C(=O)N[C@@H](Cc1ccccc1)C(=O)NCC(=O)N[C@@H](CC(=O)O)C(=O)N[C@H](C(=O)N[C@H](C(=O)N[C@@H](CC(N)=O)C(=O)N[C@@H](CCCNC(=N)N)C(=O)N[C@@H](CCCNC(=N)N)C(N)=O)[C@@H](C)CC)[C@@H](C)O)C(C)C [p4099] (H-GPSQPTYPGDDAPVEDLIRFVGRLLAYFGDTINRR-NH2) |  |  |  |  |  |  | approximately 65 °C |  |
